Results published in US20230373930A1, “AMINOIMIDAZOLE FPR2 AGONISTS” (BRISTOL-MYERS SQUIBB COMPANY, priority 2020, published 2023).

Key:
human FPR1 = molecular target: T1, human FPR1 (Homo sapiens, UniProt P21462); experiment: FPR1 cyclic adenosine monophosphate (cAMP) assay; format: cell-based; details: CHO cells overexpressing human FPR1; forskolin 10 μM; inhibition of cAMP production; HTRF; read-out: hFPR1 cAMP2 EC50
T1 sequence (P21462 1-350): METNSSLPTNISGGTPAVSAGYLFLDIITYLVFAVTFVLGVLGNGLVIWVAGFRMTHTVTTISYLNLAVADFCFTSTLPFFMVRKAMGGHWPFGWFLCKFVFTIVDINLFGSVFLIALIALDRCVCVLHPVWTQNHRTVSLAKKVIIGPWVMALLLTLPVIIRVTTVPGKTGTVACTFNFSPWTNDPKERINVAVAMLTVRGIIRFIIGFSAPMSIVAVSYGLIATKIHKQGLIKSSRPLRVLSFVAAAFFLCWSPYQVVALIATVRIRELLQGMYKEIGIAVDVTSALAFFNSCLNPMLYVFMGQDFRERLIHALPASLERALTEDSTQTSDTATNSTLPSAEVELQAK
How it was run: (§1)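 CHO cells overexpressing human FPR1 (4,000/well, 10 μM forskolin) or FPR2 (2,000/well, 5 μM forskolin) were incubated with 200 μM IBMX and compound (0.020 nM–100 μM, 1% DMSO) for 30 min at room temperature. Intracellular cAMP was measured by HTRF against a cAMP standard curve, and inhibition of cAMP production was fitted to a 4-parameter logistic.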

human FPR2 = molecular target: T2, human FPR2 (Homo sapiens, UniProt P25090); experiment: FPR2 cyclic adenosine monophosphate (cAMP) assay; format: cell-based; details: CHO cells overexpressing human FPR2; forskolin 5 μM; inhibition of cAMP production; HTRF; read-out: hFPR2 cAMP2 EC50
T2 sequence (P25090 1-351): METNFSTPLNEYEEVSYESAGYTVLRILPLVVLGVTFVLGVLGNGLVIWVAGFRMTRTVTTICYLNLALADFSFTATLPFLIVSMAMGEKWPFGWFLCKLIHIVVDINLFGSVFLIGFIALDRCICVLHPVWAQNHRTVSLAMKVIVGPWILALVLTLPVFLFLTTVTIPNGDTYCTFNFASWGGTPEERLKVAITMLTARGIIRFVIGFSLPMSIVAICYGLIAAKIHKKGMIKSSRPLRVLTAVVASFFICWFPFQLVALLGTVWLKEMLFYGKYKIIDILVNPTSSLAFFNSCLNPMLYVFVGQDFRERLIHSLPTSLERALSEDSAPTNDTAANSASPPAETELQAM
How it was run: as §1

| SMILES | EC50 (human FPR1) | EC50 (human FPR2) |
| --- | --- | --- |
| COc1cc(F)c(-n2cc(Cc3ccccc3)nc2NC(=O)c2ccc(OC(F)F)cc2)c(F)c1 [Example 71, N-[4-benzyl-1-(2,6-difluoro-4-methoxyphenyl)-1H-imidazol-2-yl]-4-(difluoromethoxy)benzamide] | 1300 nM | 46 nM |
| CCOC(=O)Cc1cn(-c2c(F)cc(OC)cc2F)c(NC(=O)c2ccc(OC(F)F)cc2)n1 [Example 72, ethyl 2-[1-(2,6-difluoro-4-methoxyphenyl)-2-[4-(difluoromethoxy)benzamido]-1H-imidazol-4-yl]acetate] | 470 nM | 22 nM |
| COc1cc(F)c(-n2cc(Cc3nnc(C)o3)nc2NC(=O)c2ccc(OC(F)F)cc2)c(F)c1 [Example 73, N-(1-(2,6-Difluoro-4-methoxyphenyl)-4-((5-methyl-1,3,4-oxadiazol-2-yl)methyl)-1H-imidazol-2-yl)-4-(difluoromethoxy)benzamide] | 300 nM | 23 nM |
| COc1cc(F)c(-n2cc(C3CC(O)C3)nc2NC(=O)c2ccc(OC(F)F)cc2)c(F)c1 (centres unmarked) [Example 74, N-(1-(2,6-Difluoro-4-methoxyphenyl)-4-(3-hydroxycyclobutyl)-1H-imidazol-2-yl)-4-(difluoromethoxy)benzamide] | 250 nM | 7 nM |
| COc1cc(F)c(-n2cc(C3CC4(CNC4)C3)nc2NC(=O)c2ccc(OC(F)F)cc2)c(F)c1 [Example 75, N-(1-(2,6-Difluoro-4-methoxyphenyl)-4-(2-azaspiro[3.3]heptan-6-yl)-1H-imidazol-2-yl)-4-(difluoromethoxy)benzamide] | > 10000 nM | 23 nM |
| COc1cc(F)c(-n2cc(C3CCC(O)CC3)nc2NC(=O)c2ccc(OC(F)F)cc2)c(F)c1 (centres unmarked) [Example 76, N-(1-(2,6-Difluoro-4-methoxyphenyl)-4-(4-hydroxycyclohexyl)-1H-imidazol-2-yl)-4-(difluoromethoxy)benzamide] | 240 nM | 10 nM |
| COc1cc(F)c(-n2cc(Cc3nc4ncc(F)cc4[nH]3)nc2NC(=O)c2ccc(OC(F)F)cc2)c(F)c1 [Example 77, N-(1-(2,6-Difluoro-4-methoxyphenyl)-4-((6-fluoro-1H-imidazo[4,5-b]pyridin-2-yl)methyl)-1H-imidazol-2-yl)-4-(difluoromethoxy)benzamide] | 120 nM | 13 nM |
| COc1cc(F)c(-n2cc(Cc3ccccn3)nc2NC(=O)c2ccc(OC(F)F)cc2)c(F)c1 [Example 78, N-[1-(2,6-difluoro-4-methoxyphenyl)-4-[(pyridin-2-yl)methyl]-1H-imidazol-2-yl]-4-(difluoromethoxy)benzamide] | 870 nM | 56 nM |
| COc1cc(F)c(-n2cc(C3CNC3)nc2NC(=O)c2ccc(OC(F)F)cc2)c(F)c1 [Example 79, N-[4-(azetidin-3-yl)-1-(2,6-difluoro-4-methoxyphenyl)-1H-imidazol-2-yl]-4-(difluoromethoxy)benzamide] | 4200 nM | 81 nM |

Now from value to molecule:

| EC50 (human FPR1) | EC50 (human FPR2) | SMILES |
| --- | --- | --- |
| 500 nM | 59 nM | COc1cc(F)c(-n2cc(-c3ccn[nH]3)nc2NC(=O)c2ccc(OC(F)F)cc2)c(F)c1 [Example 80, N-[1-(2,6-difluoro-4-methoxyphenyl)-4-(1H-pyrazol-5-yl)-1H-imidazol-2-yl]-4-(difluoromethoxy)benzamide] |
| 5400 nM | 4 nM | COc1cc(F)c(-n2cc(C3CC(N)C3)nc2NC(=O)c2ccc(OC(F)F)cc2)c(F)c1 (centres unmarked) [Example 81, N-[4-(3-aminocyclobutyl)-1-(2,6-difluoro-4-methoxyphenyl)-1H-imidazol-2-yl]-4-(difluoromethoxy)benzamide] |
| 85 nM | 10 nM | COc1cc(F)c(-n2cc(C3CC(NCC(F)(F)F)C3)nc2NC(=O)c2ccc(OC(F)F)cc2)c(F)c1 (centres unmarked) [Example 82, N-(1-(2,6-Difluoro-4-methoxyphenyl)-4-(3-((2,2,2-trifluoroethyl)amino)cyclobutyl)-1H-imidazol-2-yl)-4-(difluoromethoxy)benzamide] |
| 400 nM | 5 nM | COc1cc(F)c(-n2cc(C3CC(NS(C)(=O)=O)C3)nc2NC(=O)c2ccc(OC(F)F)cc2)c(F)c1 (centres unmarked) [Example 83, N-[1-(2,6-difluoro-4-methoxyphenyl)-4-(3-methanesulfonamidocyclobutyl)-1H-imidazol-2-yl]-4-(difluoromethoxy)benzamide] |
